Paper PMC9936538, “Structure–Activity Relationship of N-Ethyl-Hexedrone Analogues: Role of the α-Carbon Side-Chain Length in the Mechanism of Action, Cytotoxicity, and Behavioral Effects in Mice” (ACS Chemical Neuroscience, 2023)

Key:
hSERT = molecular target: T1, hSERT (Homo sapiens, UniProt P31645); assay: Monoamine uptake inhibition, [3H]5-HT uptake at hSERT in transfected HEK293 cells; format: cell-based
T1 construct: expressed in transfected cells; host or cells: HEK293
Protocol: Human embryonic kidney cells (HEK293) stably transfected with the human DAT and SERT were used for both the uptake inhibition and transporter binding assays.[6] Cells were cultured in DMEM supplemented with heat-inactivated 10% fetal bovine serum (FBS), […], and 100 U/mL penicillin at 37 °C in a 5% CO2 humidified atmosphere. Geneticin (G418; 50 μg/mL) was added to maintain the selection process. Upon approximately 80% confluence, cells were washed with 5 mL of phosphate-buffered saline (PBS) and 1 mL of trypsin/EDTA was added. After 3 min, 9 mL of DMEM was added to stop cell trypsinization. If necessary, centrifugation was performed to pellet the cells. Cells were then resuspended, counted, and seeded onto poly-D-lysine coated (24 h/prior to the experiment) 96-well plates at a density of 0.36 million cells per well for the uptake inhibition assays.
Assays were performed as previously described.[8] On the test day, the medium was removed from the cell culture 96-well plates and immediately replaced with 200 μL of Krebs-HEPES-buffer (KHB; 10 mM HEPES, 120 mM NaCl, 3 mM KCl, 2 mM CaCl2·2H2O, 2 mM MgCl2·6H2O supplemented with 20 mM D-glucose; pH 7.3). To ensure equilibrated conditions, cells were incubated with different concentrations of the drugs in KHB at a final volume of 50 μL/well for 5 min (preincubation). The preincubation solution was removed, and cells were incubated with the tritiated compounds, 0.02 μM [^3H]MPP^+ for hDAT and 0.1 μM [^3H]5-HT for hSERT, together with various concentrations of the test drugs in KHB. The uptake incubation times were 3 min for hDAT and 1 min for hSERT. The reaction was stopped by rapid removal of the incubation solution and washout with ice-cold KHB. Cells were lysed with 1% sodium dodecyl sulfate, and lysates were subsequently transferred to vials containing scintillation fluid. Radioactivity was quantified with a beta-scintillation counter (PerkinElmer, Waltham, MA, USA). The uptake in the absence of the test drugs was normalized to 100%, and the uptake in the presence of various concentrations of cathinones was expressed as a percentage thereof. […] Four independent experiments carried out on triplicates were performed.
For in vitro assays, data were normalized with 100% defined as the mean of the technical replicates in the control group and expressed as mean ± SEM. Nonlinear regression was used to fit the different competition curves. Data were plotted and best fitted to a sigmoidal dose–response curve from which an IC50 or LC50 value was obtained. Transporter ratios were calculated as (1/DAT IC50: 1/SERT IC50). […] The Cheng–Prusoff equation was used to calculate Ki (affinity): Ki = EC50/(1 + [radioligand concentration/Kd]).[65] The sample size for behavioral experiments was determined using GPower software. One-way or two-way ANOVA, and subsequent Tukey’s posthoc test, conducted only if F was significant, was used to determine the effects of cathinones on cytotoxicity, HLA, OF, and CPP experiments. The α error probability was set at 0.05 (p < 0.05). The exact size group for the behavioral experiments is shown in the corresponding figure legends. All statistic calculations were carried out using GraphPad Prism (GraphPad software, San Diego, CA, USA).

Swiss CD-1 mice = assay: Horizontal locomotor activity (HLA) in mice; format: in vivo; conditions: for shape of the dose response of HLA: 3, 10, 30 mg/kg i.p., ceiling at highest dose 30 mg/kg; for HLA (total distance traveled in 60 min) vs saline / duration of the significant increase in locomotor activity: 3 mg/kg i.p.; for duration of the significant increase in locomotor activity: 5 min blocks
Protocol: Male Swiss CD-1 mice (Janvier, Le Genest, France) weighing 30–35 g (6–8 weeks old), housed in temperature-controlled conditions (22 ± 1 °C) under a 12 h light/dark cycle and with free access to food and drinking water (standard laboratory diet, Panlab SL, Barcelona, Spain), were randomly assigned to an experimental group. Efforts were made to minimize animal use and suffering.
In the habituation phase, which lasted for two consecutive days, mice received an intraperitoneal (i.p.) saline injection and were immediately placed into a black Plexiglass OF arena (25 × 25 × 40 cm) under low-light conditions and white noise for 30 min. On the test day, the HLA was measured as described.[8] […] HLA was video-monitored for 1 h and a specific tracking software (Smart 3.0 Panlab, Barcelona, Spain) was used to measure their total traveled distance (in cm). The doses were chosen according to the psychostimulant effect induced by structurally related synthetic cathinones published in previous studies by our research group.[8]

[1] = test system: NGF-differentiated PC12 cells; assay: Cytotoxicity in NGF-differentiated PC12 cells, WST-8 cell viability assay; format: cell-based; conditions: WST-8, 0.01–8.00 mM, 24 h
Protocol: Pheochromocytoma cells (PC12) cells were cultured in collagen-coated dishes in DMEM supplemented with heat-inactivated 5% FBS, 10% horse serum, 10 mM HEPES, 2 mM glutamine, 25 UI/mL penicillin, and 25 μg/mL streptomycin (maintenance medium) and grown at 37 °C in a humidified 5% CO2 atmosphere. Cell differentiation was performed as described[54] with minor modifications. In brief, cells were seeded (250.000 cells/well) onto 96-well plates in the maintenance medium, and after 24 h, the medium was changed to a differentiation medium containing 50 ng/mL NGF. After 24 h, neurite outgrowth was already apparent.
Treatments with different concentrations of the drug in DMEM were performed 48 h after cell differentiation. 10 μL of the tested drug was added per well, in triplicate, and cells were incubated for 24 h at 37 °C in a humidified 5% CO2 atmosphere. Thereafter, the medium was removed and immediately replaced with a maintenance medium. 10 μL of the CCK-8 Cell Counting Kit, based on 2-(2-methoxy-4-nitrophenyl)-3-(4-nitrophenyl)-5-(2,4-disulfophenyl)-2H-tetrazolium, monosodium salt (WST-8), was added per well and was incubated for 2 h at 37 °C in a humidified 5% CO2 atmosphere. This method has been defined as a good alternative to the 3-(4,5-dimethylthiazol-2-yl)-2,5-diphenyltetrazoliumbromide (MTT) assay.[63] Optical density was measured at 450 nm, using a microplate reader.
For in vitro assays, data were normalized with 100% defined as the mean of the technical replicates in the control group and expressed as mean ± SEM. Nonlinear regression was used to fit the different competition curves. Data were plotted and best fitted to a sigmoidal dose–response curve from which an IC50 or LC50 value was obtained. Transporter ratios were calculated as (1/DAT IC50: 1/SERT IC50). Although IC50 values at inhibiting 5-HT uptake for some compounds tested are expressed as >100 μM for clarity purposes, DAT/SERT ratios were calculated with the original raw data. The Cheng–Prusoff equation was used to calculate Ki (affinity): Ki = EC50/(1 + [radioligand concentration/Kd]).[65] The sample size for behavioral experiments was determined using GPower software. One-way or two-way ANOVA, and subsequent Tukey’s posthoc test, conducted only if F was significant, was used to determine the effects of cathinones on cytotoxicity, HLA, OF, and CPP experiments. The α error probability was set at 0.05 (p < 0.05). The exact size group for the behavioral experiments is shown in the corresponding figure legends. All statistic calculations were carried out using GraphPad Prism (GraphPad software, San Diego, CA, USA).

T1 sequence (P31645 whole entry): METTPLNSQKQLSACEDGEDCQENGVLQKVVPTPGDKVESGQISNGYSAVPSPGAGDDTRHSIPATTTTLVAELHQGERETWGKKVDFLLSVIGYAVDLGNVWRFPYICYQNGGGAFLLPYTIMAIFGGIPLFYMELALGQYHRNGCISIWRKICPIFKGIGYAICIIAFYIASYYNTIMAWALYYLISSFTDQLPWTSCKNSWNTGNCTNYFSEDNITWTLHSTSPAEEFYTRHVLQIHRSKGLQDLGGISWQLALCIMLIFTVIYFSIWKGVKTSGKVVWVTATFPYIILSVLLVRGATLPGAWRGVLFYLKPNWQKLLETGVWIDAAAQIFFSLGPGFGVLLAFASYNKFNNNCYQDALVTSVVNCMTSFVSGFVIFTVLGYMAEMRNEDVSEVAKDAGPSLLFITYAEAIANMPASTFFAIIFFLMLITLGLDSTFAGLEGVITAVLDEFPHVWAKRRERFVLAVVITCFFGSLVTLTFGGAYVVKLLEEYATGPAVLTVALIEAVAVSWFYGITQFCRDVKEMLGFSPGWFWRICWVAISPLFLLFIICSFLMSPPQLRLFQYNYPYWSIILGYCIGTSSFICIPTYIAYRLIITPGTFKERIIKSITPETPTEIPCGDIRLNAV

Structure (SMILES)	IC50 (hSERT) [µM]	shape of the dose response of HLA (Swiss CD-1 mice)	HLA (total distance traveled in 60 min) vs saline (Swiss CD-1 mice)	duration of the significant increase in locomotor activity (Swiss CD-1 mice) [min]	concentration at which cytotoxicity starts [1] [µM]	time at which the locomotor effect ended (Swiss CD-1 mice; 10 mg/kg i.p., 60 min session) [min]
CCNC(C)C(=O)c1ccccc1 (stereo not shown) [NEC, N-ethyl-cathinone]	> 100	dose–response relationship				
CCCCC(NCC)C(=O)c1ccccc1 (stereo not shown) [NEH, N-ethyl-hexedrone]	> 100	dose–response relationship				
CCCC(NCC)C(=O)c1ccccc1 (stereo not shown) [NEPD, N-ethyl-pentedrone]	76.4	ceiling effect	significant effect	40		
CCNC(CC)C(=O)c1ccccc1 (stereo not shown) [NEB, N-ethyl-buphedrone]	51.2	ceiling effect	significant effect	15		
CCCCCC(NCC)C(=O)c1ccccc1 (stereo not shown) [NEHP, N-ethyl-heptedrone]	> 100	dose–response relationship			100	< 60
